Publication PMC6560442, “Biochemical Properties of Polyphenol Oxidases from Ready-to-Eat Lentil (Lens culinaris Medik.) Sprouts and Factors Affecting Their Activities: A Search for Potent Tools Limiting Enzymatic Browning” (Foods, 2019)

What was measured:
PPO II = test system: T1, PPO II; experiment: quinone formation, absorbance at […] nm, Lineweaver-Burk; format: biochemical, Lens culinaris; conditions: TRIS-HCl 50 mM pH 6.5 (standard assay); 1-30 mM substrate; partially purified enzyme
T1 construct: second isoenzyme

PPO I = test system: T2, PPO I; experiment: as above; format: biochemical, Lens culinaris; conditions: TRIS-HCl 50 mM pH 6.5 (standard assay); 1-30 mM substrate; partially purified enzyme
T2 construct: first isoenzyme

Structure (SMILES) | Km (PPO II) [mM] | Km (PPO I) [mM]
Oc1ccccc1O [Catechol] | 0.94 ± 0.04 | 1.76 ± 0.08
Cc1ccc(O)c(O)c1 [4-methylcatechol] | 3.4 ± 0.15 | 3 ± 0.14
O=C(O)/C=C/c1ccc(O)c(O)c1 [Caffeic acid] |  | 3.81 ± 0.17
O=C(O)c1cc(O)c(O)c(O)c1 [Gallic acid] | 5 ± 0.23 | 2.25 ± 0.1
